Values after ≈ are worked out from the molar mass of the structure shown.
What was measured:
Format in all cases: functional
Candida albicans [1] = experiment: Inhibitory activity against Candida albicans (40 clinical isolates), determined at pH-5.8
Candida albicans [2] = experiment: Inhibitory activity against the Candida albicans (40 clinical isolates), determined at pH-7.2
Candida albicans [3] = experiment: 50% inhibitory activity against Candida albicans (40 clinical isolates) determined at pH-5.8
Candida [4] = experiment: 50% inhibitory activity against the Candida. species (40 clinical isolates) was determined at pH-7.2
Candida [5] = experiment: Resistance against all Candida. species (40 clinical isolates) at 256 micro g/mL (pH=5.8). Activity is expressed as R%.
Candida [6] = experiment: Inhibitory activity against Candida. species. (40 clinical isolates), determined at pH-5.8
Candida [7] = experiment: Percent resistance against all Candida. species (40 clinical isolates) at 256 micro g/mL (pH=7.2), activity is expressed as R%.
Candida albicans [8] = experiment: Resistance against Candida. albicans (40 clinical isolates) at 256 ug/mL (pH=7.2), activity is expressed as R%.
Candida [9] = experiment: 90% inhibitory activity against Candida. species (40 clinical isolates) determined at pH-7.2
Candida albicans [10] = experiment: Inhibitory activity against the Candida albicans (40 clinical isolates), determined at pH-5.8
Candida [11] = experiment: Inhibitory activity against Candida. species (40 clinical isolates), determined at pH-5.8
Candida [12] = experiment: Inhibitory activity against Candida. species. (40 clinical isolates), determined at pH-7.2
Candida albicans [13] = experiment: Inhibitory activity against Candida albicans (40 clinical isolates), determined at pH-7.2
Candida albicans [14] = experiment: 50% inhibitory activity against Candida albicans (40 clinical isolates) determined at pH-7.2; conditions: Candida albicans; read-out: MIC50
Candida albicans [15] = experiment: Percent resistance against Candida albicans (40 clinical isolates) at 256 micro g/mL (pH=5.8), activity is expressed as R%.

Compound: Clc1ccc(-c2c[nH]cc2C(c2cccc3ccccc23)n2ccnc2)cc1 (stereo not drawn)
- MIC (Candida albicans [1]): 11.2 µg/mL (≈ 29.2 µM)
- MIC90 (Candida albicans [2]): 16 µg/mL (≈ 41.7 µM)
- MIC50 (Candida albicans [3]): 4 µg/mL (≈ 10.4 µM)
- MIC50 (Candida [4]): 16 µg/mL (≈ 41.7 µM)
- R (Candida [5]): 0%
- MIC (Candida [6]): 16.6 µg/mL (≈ 43.2 µM)
- R (Candida [7]): 0%
- R (Candida albicans [8]): 0%
- MIC90 (Candida [9]): 32 µg/mL (≈ 83.4 µM)
- MIC90 (Candida albicans [10]): 16 µg/mL (≈ 41.7 µM)
- MIC50 (Candida [11]): 8 µg/mL (≈ 20.8 µM)
- MIC90 (Candida [11]): 32 µg/mL (≈ 83.4 µM)
- MIC (Candida [12]): 29 µg/mL (≈ 75.5 µM)
- MIC (Candida albicans [13]): 10.1 µg/mL (≈ 26.3 µM)
- MIC50 (Candida albicans [14]): 1 µg/mL (≈ 2.6 µM)
- R (Candida albicans [15]): 0%

Compound: Clc1ccc(C(c2c[nH]cc2-c2ccccc2Cl)n2ccnc2)cc1Cl (stereo not drawn)
- MIC (Candida albicans [1]): 13.8 µg/mL (≈ 34.3 µM)
- MIC90 (Candida albicans [2]): 32 µg/mL (≈ 79.5 µM)
- MIC50 (Candida albicans [3]): 8 µg/mL (≈ 19.9 µM)
- MIC50 (Candida [4]): 32 µg/mL (≈ 79.5 µM)
- R (Candida [5]): 0%
- MIC (Candida [6]): 24.8 µg/mL (≈ 61.6 µM)
- R (Candida [7]): 0%
- R (Candida albicans [8]): 0%
- MIC90 (Candida [9]): 64 µg/mL (≈ 159 µM)
- MIC90 (Candida albicans [10]): 32 µg/mL (≈ 79.5 µM)
- MIC50 (Candida [11]): 32 µg/mL (≈ 79.5 µM)
- MIC90 (Candida [11]): 32 µg/mL (≈ 79.5 µM)
- MIC (Candida [12]): 36.2 µg/mL (≈ 89.9 µM)
- MIC (Candida albicans [13]): 12.7 µg/mL (≈ 31.5 µM)
- MIC50 (Candida albicans [14]): 16 µg/mL (≈ 39.7 µM)
- R (Candida albicans [15]): 0%

Compound: Clc1ccc(-c2c[nH]cc2C(c2ccc(Cl)c(Cl)c2)n2ccnc2)c(Cl)c1 (stereo not drawn)
- MIC (Candida albicans [1]): 7.2 µg/mL (≈ 16.5 µM)
- MIC90 (Candida albicans [2]): 32 µg/mL (≈ 73.2 µM)
- MIC50 (Candida albicans [3]): 2 µg/mL (≈ 4.58 µM)
- MIC50 (Candida [4]): 16 µg/mL (≈ 36.6 µM)
- R (Candida [5]): 0%
- MIC (Candida [6]): 14.2 µg/mL (≈ 32.5 µM)
- R (Candida [7]): 0%
- R (Candida albicans [8]): 0%
- MIC90 (Candida [9]): 32 µg/mL (≈ 73.2 µM)
- MIC90 (Candida albicans [10]): 32 µg/mL (≈ 73.2 µM)
- MIC50 (Candida [11]): 16 µg/mL (≈ 36.6 µM)
- MIC90 (Candida [11]): 16 µg/mL (≈ 36.6 µM)
- MIC (Candida [12]): 21.3 µg/mL (≈ 48.7 µM)
- MIC (Candida albicans [13]): 19.6 µg/mL (≈ 44.8 µM)
- MIC50 (Candida albicans [14]): 16 µg/mL (≈ 36.6 µM)
- R (Candida albicans [15]): 0%

Compound: Cc1ccc(C(c2c[nH]cc2-c2ccc(Cl)cc2)n2ccnc2)cc1 (stereo not drawn)
- MIC (Candida albicans [1]): 12.3 µg/mL (≈ 35.4 µM)
- MIC90 (Candida albicans [2]): 32 µg/mL (≈ 92 µM)
- MIC50 (Candida albicans [3]): 16 µg/mL (≈ 46 µM)
- MIC50 (Candida [4]): 16 µg/mL (≈ 46 µM)
- R (Candida [5]): 0%
- MIC (Candida [6]): 20.4 µg/mL (≈ 58.6 µM)
- R (Candida [7]): 0%
- R (Candida albicans [8]): 0%
- MIC90 (Candida [9]): 32 µg/mL (≈ 92 µM)
- MIC90 (Candida albicans [10]): 32 µg/mL (≈ 92 µM)
- MIC50 (Candida [11]): 16 µg/mL (≈ 46 µM)
- MIC90 (Candida [11]): 32 µg/mL (≈ 92 µM)
- MIC (Candida [12]): 23.1 µg/mL (≈ 66.4 µM)
- MIC (Candida albicans [13]): 18.9 µg/mL (≈ 54.3 µM)
- MIC50 (Candida albicans [14]): 16 µg/mL (≈ 46 µM)
- R (Candida albicans [15]): 0%

Compound: Clc1ccc(-c2c[nH]cc2C(c2ccccc2)n2ccnc2)c(Cl)c1 (stereo not drawn)
- MIC (Candida albicans [1]): 8.4 µg/mL (≈ 22.8 µM)
- MIC90 (Candida albicans [2]): 16 µg/mL (≈ 43.4 µM)
- MIC50 (Candida albicans [3]): 4 µg/mL (≈ 10.9 µM)
- MIC50 (Candida [4]): 16 µg/mL (≈ 43.4 µM)
- R (Candida [5]): 0%
- MIC (Candida [6]): 23.5 µg/mL (≈ 63.8 µM)
- R (Candida [7]): 0%
- R (Candida albicans [8]): 0%
- MIC90 (Candida [9]): 32 µg/mL (≈ 86.9 µM)
- MIC90 (Candida albicans [10]): 16 µg/mL (≈ 43.4 µM)
- MIC50 (Candida [11]): 32 µg/mL (≈ 86.9 µM)
- MIC90 (Candida [11]): 32 µg/mL (≈ 86.9 µM)
- MIC (Candida [12]): 16.6 µg/mL (≈ 45.1 µM)
- MIC (Candida albicans [13]): 5.4 µg/mL (≈ 14.7 µM)
- MIC50 (Candida albicans [14]): 2 µg/mL (≈ 5.43 µM)
- R (Candida albicans [15]): 0%

Compound: Nc1ccc(C(c2c[nH]cc2-c2ccccc2Cl)n2ccnc2)cc1 (stereo not drawn)
- MIC (Candida albicans [1]): 100 µg/mL (≈ 288 µM)
- MIC90 (Candida albicans [2]): 256 µg/mL (≈ 734 µM)
- MIC50 (Candida albicans [3]): 64 µg/mL (≈ 183 µM)
- MIC50 (Candida [4]): 256 µg/mL (≈ 734 µM)
- R (Candida [5]): 50%
- MIC (Candida [6]): 201 µg/mL (≈ 576 µM)
- R (Candida [7]): 50%
- R (Candida albicans [8]): 0%
- MIC90 (Candida [9]): 256 µg/mL (≈ 734 µM)
- MIC90 (Candida albicans [10]): 256 µg/mL (≈ 734 µM)
- MIC50 (Candida [11]): 256 µg/mL (≈ 734 µM)
- MIC90 (Candida [11]): 256 µg/mL (≈ 734 µM)
- MIC (Candida [12]): > 222 µg/mL
- MIC (Candida albicans [13]): 131 µg/mL (≈ 376 µM)
- MIC50 (Candida albicans [14]): 64 µg/mL (≈ 183 µM)
- R (Candida albicans [15]): 0%

Compound: Clc1ccc(-c2c[nH]cc2C(c2ccc(-c3ccccc3)cc2)n2ccnc2)cc1 (stereo not drawn)
- MIC (Candida albicans [1]): > 26.5 µg/mL
- MIC90 (Candida albicans [2]): 256 µg/mL (≈ 625 µM)
- MIC50 (Candida albicans [3]): 8 µg/mL (≈ 19.5 µM)
- MIC50 (Candida [4]): > 256 µg/mL
- R (Candida [5]): 0%
- MIC (Candida [6]): 28.4 µg/mL (≈ 69.3 µM)
- R (Candida [7]): 60%
- R (Candida albicans [8]): 40%
- MIC90 (Candida [9]): > 256 µg/mL
- MIC90 (Candida albicans [10]): 256 µg/mL (≈ 625 µM)
- MIC50 (Candida [11]): 32 µg/mL (≈ 78.1 µM)
- MIC90 (Candida [11]): 128 µg/mL (≈ 312 µM)
- MIC (Candida [12]): > 352 µg/mL
- MIC (Candida albicans [13]): > 150 µg/mL
- MIC50 (Candida albicans [14]): 64 µg/mL (≈ 156 µM)
- R (Candida albicans [15]): 0%

Compound: Clc1ccc(-c2c[nH]cc2C(c2ccc(Cl)cc2)n2ccnc2)cc1 (stereo not drawn)
- MIC (Candida albicans [1]): 12.3 µg/mL (≈ 33.4 µM)
- MIC90 (Candida albicans [2]): 32 µg/mL (≈ 86.9 µM)
- MIC50 (Candida albicans [3]): 8 µg/mL (≈ 21.7 µM)
- MIC50 (Candida [4]): 16 µg/mL (≈ 43.4 µM)
- R (Candida [5]): 0%
- MIC (Candida [6]): 20.2 µg/mL (≈ 54.9 µM)
- R (Candida [7]): 0%
- R (Candida albicans [8]): 0%
- MIC90 (Candida [9]): 32 µg/mL (≈ 86.9 µM)
- MIC90 (Candida albicans [10]): 32 µg/mL (≈ 86.9 µM)
- MIC50 (Candida [11]): 16 µg/mL (≈ 43.4 µM)
- MIC90 (Candida [11]): 32 µg/mL (≈ 86.9 µM)
- MIC (Candida [12]): 21.3 µg/mL (≈ 57.8 µM)
- MIC (Candida albicans [13]): 16.3 µg/mL (≈ 44.3 µM)
- MIC50 (Candida albicans [14]): 16 µg/mL (≈ 43.4 µM)
- R (Candida albicans [15]): 0%

Reference: ChEMBL document CHEMBL1128323, “Antifungal agents. 9. 3-Aryl-4-[alpha-(1H-imidazol-1-yl)arylmethyl]pyrroles: a new class of potent anti-Candida agents” (1995)
